Test [1] deals with VCAM-1. As to the kind of experiment: Cell surface ELISA for VCAM-1 in human aortic smooth muscle cells (HASMC), interleukin-4 induced. It counts as cell-based. As to conditions: 50 μm; for VCAM-1 (Avg.) % inh.: average of HSMC-1 to HSMC-3; for HSMC-1 % inh. of VCAM-1: experiment HSMC-1, interleukin-4, about 20 hr; for HSMC-2 % inh. of VCAM-1: experiment HSMC-2, interleukin-4, about 20 hr; for HSMC-3 % inh. of VCAM-1: experiment HSMC-3, interleukin-4, about 20 hr. As for the experimental part: (§1) Cell Surface ELISA for VCAM-1/ICAM-1
(§2) Proliferating human umbilical vein endothelial cells (HUVEC) or human aortic smooth muscle cells (HASMC) from Clonetics (San Diego, Calif.) were plated onto 96-well plates in 100 μL medium per well at 20,000 cells per cm^2. The cultures were maintained in growth medium (EGM or SMGM2, Clonetics, San Diego, Calif.) for two days prior to addition of cytokines or drugs. Cytokines plus or minus compounds were added for 20 to 24 hours prior to analysis for adhesion molecule levels. Tumor necrosis factor (Genzyme, Cambridge, Mass.) was added to cultures at 500-1000 units/mL. Interleukin-4 (GIBCO-BRL, Gaithersburg, Md.) was added to cultures at 100-200 pg/mL. (Additions were made by transferring 100 [μL of cytokines plus compounds serially diluted on a separate 96-well plate into the plates containing cells. The medium on the cultures was not exchanged prior to addition of effectors). The culture medium was removed, and the monolayers were washed twice with Hanks buffered saline solution (HBSS) at room temperature. The primary antibody (anti-human VCAM-1 from Upstate Biotechnology, Inc., Lake Placid, N.Y. or anti-human ICAM-1 from Immunotech, Inc., Westbrook, Me.) was added to each well (1 μg/mL in HBSS plus 5% newborn calf serum, GIBCO-BRL, Gaithersburg, Md.) and incubated at 37° C. for 1 hr. The wells were washed twice with HBSS, then 100 μL of a 1/1000 dilution of goat anti-mouse IgG conjugated to horse radish peroxidase (BioRad, Hercules, Calif.) in HBSS plus 5% newborn calf serum was added to each well and incubated for 1 hr at 37° C. The wells were washed three times with HBSS, then 100 μL of TMB substrate (BioRad, Hercules, Calif.) was added to each well. The reaction was stopped after blue color developed by addition of 50 μL of 1N H2 SO4. Absorbance is measured at 450 nm with a plate reader. IC50 values were determined from curves of absorbance values obtained from serial dilutions of compounds (dissolved in dimethyl sulfoxide).
(§3) The IC50 value is defined as the drug concentration that inhibits the cytokine-induced adhesion molecule expression by 50%. Maximal values for adhesion molecule expression in cytokine-induced cultures was […] the basal level of adhesion molecule expression (minus cytokines) in the cultures to determine the level of induction. […] Each drug concentration was tested in quadruplicate wells. Single point tests of compounds at 50 μM were assayed as described for IC50 determinations, except that the data represent the level of inhibition without correction for basal expression. (Basal adhesion molecule expression was 10-20% of the total induced expression). Table 1 summarizes the ability of various compounds of this invention to inhibit VCAM-1 using human aortic smooth muscle cells (HASMC). In these experiments, the cells were coincubated with interleukin-4 and the compounds listed about 20 hr before assaying cell surface VCAM-1 levels. Each column represents a separate experiment.
A general note: ELISA stands for enzyme-linked immunosorbent assay.

Test [2] deals with VCAM-1. Nature of the test: Cell surface ELISA for VCAM-1 in human umbilical vein endothelial cells (HUVEC), TNF-alpha induced. It counts as cell-based. As to conditions: 50 μM, average of three runs. As for the experimental part: as §1, §2, §3
In these experiments, the cells were coincubated with tumor necrosis factor-alpha along with the indicated compounds about 20 to 24 hr before assaying cell surface adhesion molecule expression.

Test [3] concerns serum cholesterol, LDL, HDL, triglycerides. As to the kind of experiment: Serum lipids and lipoprotein cholesterol in cholesterol-fed female New Zealand White rabbits. It counts as in vivo. To be noted: Oryctolagus cuniculus, po, rabbit serum; for response vs control in vivo at 0.4 %: 168 h, diet 0.4%, 7 days; for response vs control in vivo at 0.6 %: 336 h, diet 0.6%, 14 days. As for the experimental part:
Five independent experiments were performed in the following manner. […] Female New Zealand White rabbits (Hazelton, ~2.0-2.3 kg) were fed 0.2% cholesterol enriched rabbit chow (Purina #5322) with or without 0.4% MDL compound (except, MDL 108,804 at 0.26% and MDL 103,491 repeated at 0.6%). The MDL compounds were solubilized in 100% ethanol. MDL 108,208 was not soluble in 100% ethanol, but it was soluble in diethyl ether:ethanol (3:2 by volume). The chow was sprayed with the MDL mixtures and allowed to dry overnight in a chemical fume hood. Control chow was sprayed with ethanol. Rabbits were fed 100 grams food per day for 7 days (0.6% MDL 103,491 were fed for 14 days); water was available ad libitum. On day 7, rabbits (fasted overnight) were bled (~2 mL) from marginal ear vein; 0.6% MDL 103,491 treated rabbits were tested on day 14. They were euthanized by carbon dioxide overdose. The total body and liver weights were recorded in grams. Food consumption was recorded as grams.cndot.day^-1 .cndot.rabbit^-1. Aliquots of fresh serum were used for clinical chemistries, lipoprotein cholesterol determination, thiobarbituric acid reactive substances (TBARS) and compound and metabolite concentrations in serum. Livers (~5 gram aliquots) were frozen at -20° C. for compound and metabolite concentration determination at a later time.
Blood was allowed to clot at room temperature for 30 minutes. Serum was obtained after centrifugation for 10 min at 5° C. at 3000 rpm in a Beckman GPKR centrifuge with a GH rotor. Fresh serum was analyzed by a COBAS MIRA autoanalyzer (Roche Diagnostics) using Roche diagnostic reagents for total cholesterol (CHOL, kit #44334) and triglyceride (TG, kit #44120). Cholesterol and triglycerides were calculated as mg/dL.
Lipoprotein fractions (very low density lipoprotein, VLDL, low density lipoprotein, LDL and high density lipoprotein, HDL) were separated on a Sepharose 6HR column (1×30 cm, Pharmacia) attached to a Waters Powerline HPLC system. Fifty μL of serum were injected onto the column and eluted with phosphate buffered saline, pH 7.4, at a flow rate of 0.5 mL/min. Cholesterol reagent (Roche Diagnostics, kit #44334, diluted with 20 mL water and then with 20 mL of 0.9% saline) was added at 0.2 mL/min to the post column eluant and incubated in a knitted PFTE Kratos reaction coil (Applied Biosystems) at 37° C. for 5 min. Absorbance was measured at 500 nm. The lipoprotein subfractions were quantitated as follows: [formula]

[4] abbreviates: read-out: HDL cholesterol, percent of control.
Setting [5] is: read-out: LDL cholesterol, percent of control.
[6] abbreviates: read-out: TRIG (triglycerides), percent of control.
[7] abbreviates: read-out: chol tot. (total cholesterol), percent of control.

From patent publication US5608095A, “Alkyl-4-silyl-phenols and esters thereof as antiatherosclerotic agents” (Hoechst Marion Roussel, Inc., priority 1996, dated 1997) come the findings set out here.

Each structure is given as a SMILES string. Where two headings read alike, the source gives them in different places.

Take `CC(C)(C)c1cc(OC[Si](C)(C)c2ccccc2)cc(C(C)(C)C)c1OC(=O)CCC(=O)O` [MDL 103,076, 2,6-Di-t-butyl-4-[(dimethylphenylsilyl)methyloxy]phenol succinic acid ester]: in the test on VCAM-1 [1], the “VCAM-1 (Avg.) % inh.” value came to 43.9%, the “HSMC-1 % inh. of VCAM-1” value worked out at 30.6%, the “HSMC-2 % inh. of VCAM-1” value turned out to be 55.0% and the “HSMC-3 % inh. of VCAM-1” value was 46.0%. The VCAM-1 % inh. in the test on VCAM-1 [2] is given as 7.3%.
Consider `CC(C)(C)c1cc(SC[Si](C)(C)c2ccccc2)cc(C(C)(C)C)c1OC(=O)CCC(=O)O` [MDL 103,141, 2,6-Di-t-butyl-4-[(dimethylphenylsilyl)methylthio]phenol sucinic acid ester], for which, in the test on VCAM-1 [1], the “VCAM-1 (Avg.) % inh.” value was determined as 31.2%, the “HSMC-1 % inh. of VCAM-1” value was 13.7%, the “HSMC-2 % inh. of VCAM-1” value was determined as 47.0% and the “HSMC-3 % inh. of VCAM-1” value came out at 33.0%. Besides, in the test with VCAM-1 [2], the VCAM-1 % inh. amounted to 1.3%.
For the molecule `CC(=O)Oc1c(C(C)(C)C)cc(OC[Si](C)(C)c2ccccc2)cc1C(C)(C)C` [MDL 103,377, 2,6-Di-t-butyl-4-[(dimethylphenylsilyl)methyloxy]phenol acetic acid ester], in the test on VCAM-1 [1], the “VCAM-1 (Avg.) % inh.” value is on record as 45.5%, the “HSMC-2 % inh. of VCAM-1” value is 45.0% and the “HSMC-3 % inh. of VCAM-1” value is on record as 46.0%. In addition, in the test with VCAM-1 [2], the VCAM-1 % inh. came out at 18.3%.
In the case of `CC(C)(C)c1cc(OC[Si](C)(C)c2ccccc2)ccc1O` [MDL 103,491, 2-t-Butyl-4-[(dimethylphenylsilyl)methyloxy]phenol], the response vs control in vivo at 0.4 % in test [3] (setting [4]) turned out to be 103%. For the same molecule, in test [3] (setting [5]), the response vs control in vivo at 0.4 % worked out at 81%. Besides, in test [3] (setting [6]), the response vs control in vivo at 0.4 % was found to be 134% and the response vs control in vivo at 0.6 % came out at 216%. Besides, in test [3] (setting [7]), the response vs control in vivo at 0.4 % was determined as 85% and the response vs control in vivo at 0.6 % amounted to 139%. Further, in the test on VCAM-1 [1], the “VCAM-1 (Avg.) % inh.” value is on record as 53.0%, the “HSMC-2 % inh. of VCAM-1” value worked out at 57.0% and the “HSMC-3 % inh. of VCAM-1” value was found to be 49.0%. In the test on VCAM-1 [2], this molecule registered a VCAM-1 % inh. of 12.0%.
As for `CN(C)c1ccc([Si](C)(C)COc2cc(C(C)(C)C)c(O)c(C(C)(C)C)c2)cc1` [MDL 104,556, 2,6-Di-t-butyl-4-[(4-N,N-dimethylaminophenyldimethylsilyl)methyloxy]phenol], the response vs control in vivo at 0.4 % in test [3] (setting [4]) amounted to 116%. In addition, in test [3] (setting [5]), the response vs control in vivo at 0.4 % was found to be 53%. Further, in test [3] (setting [6]), the response vs control in vivo at 0.4 % was found to be 81%. Besides, the response vs control in vivo at 0.4 % in test [3] (setting [7]) was determined as 47%. In the test on VCAM-1 [1], the “VCAM-1 (Avg.) % inh.” value came to 56.7%, the “HSMC-1 % inh. of VCAM-1” value is on record as 54.1%, the “HSMC-2 % inh. of VCAM-1” value is reported as 58.0% and the “HSMC-3 % inh. of VCAM-1” value is 58.0%. In the test with VCAM-1 [2], this molecule had a VCAM-1 % inh. of 33.3%.
Take `CC(C)(C)c1cc(OC[Si](C)(c2ccccc2)c2ccccc2)cc(C(C)(C)C)c1O` [MDL 104,599, 2,6-Di-t-butyl-4-[(diphenylmethylsilyl)methloxy]phenol]: the response vs control in vivo at 0.4 % in test [3] (setting [4]) amounted to 105%; in test [3] (setting [5]) it was 71%; in test [3] (setting [6]), 64%; in test [3] (setting [7]), 76%. Moreover, in the test with VCAM-1 [1], the “VCAM-1 (Avg.) % inh.” value is 45.7%. Moreover, the “HSMC-1 % inh. of VCAM-1” value with VCAM-1 [1] is listed as 50.1%. Also, in the test on VCAM-1 [1], the “HSMC-2 % inh. of VCAM-1” value turned out to be 38.0%. Besides, in the test with VCAM-1 [1], the “HSMC-3 % inh. of VCAM-1” value came out at 49.0%. The molecule further had a VCAM-1 % inh. in the test with VCAM-1 [2] of 12.3%.
Regarding `CC(C)(C)c1cc(OC[Si](C)(C)c2ccccc2)c(C(C)(C)C)cc1O` [MDL 104,962, 2,5-Di-t-butyl-4-[(dimethylphenylsilyl)methyloxy]phenol], the response vs control in vivo at 0.4 % in test [3] (setting [4]) came to 163%; in test [3] (setting [5]) it was 105%; in test [3] (setting [6]) it was 159%; in test [3] (setting [7]), 118%.
`Cc1cc(OC[Si](C)(C)c2ccccc2)c(C)c(C)c1O` [MDL 105,314, 2,3,6-Trimethyl-4-[(dimethylphenylsdilyl)methloxy]phenol]: in the test with VCAM-1 [1], the “VCAM-1 (Avg.) % inh.” value was 28.2%, the “HSMC-1 % inh. of VCAM-1” value is listed as 8.7%, the “HSMC-2 % inh. of VCAM-1” value came to 38.0% and the “HSMC-3 % inh. of VCAM-1” value amounted to 38.0%. Further, in the test on VCAM-1 [2], the VCAM-1 % inh. came out at 10.7%.
`CC(=O)Oc1ccc(OC[Si](C)(C)c2ccccc2)cc1C(C)(C)C` [MDL 105,443, 2-t-Butyl-4-[(dimethylphenylsilyl)methyloxy]phenol acetic acid ester]: the response vs control in vivo at 0.4 % in test [3] (setting [4]) stood at 115%; in test [3] (setting [5]), 97%; in test [3] (setting [6]) it was 127%; in test [3] (setting [7]), 98%. Further, the “VCAM-1 (Avg.) % inh.” value with VCAM-1 [1] was 25.8%. Moreover, in the test on VCAM-1 [1], the “HSMC-1 % inh. of VCAM-1” value is 11.4%. For the same molecule, the “HSMC-2 % inh. of VCAM-1” value in the test with VCAM-1 [1] turned out to be 44.0%. Also, the “HSMC-3 % inh. of VCAM-1” value in the test on VCAM-1 [1] amounted to 22.0%. Also, the VCAM-1 % inh. with VCAM-1 [2] worked out at 3.0%.
Turning to `COc1ccc([Si](C)(C)COc2ccc(O)c(C(C)(C)C)c2)cc1` [MDL 106,834, 2-t-Butyl-4-[(dimethyl-p-methoxylphenylsilyl)methyloxy]phenol], the response vs control in vivo at 0.4 % in test [3] (setting [4]) worked out at 61%; in test [3] (setting [5]) it was 89%; in test [3] (setting [6]), 98%; in test [3] (setting [7]), 67%.
